According to patent US12433964B2, “Antiviral and antibacterial disinfection aero-solution using edible food dyes” (Purdue Research Foundation, priority 2020, dated 2025):

Assay: Lifetime (photobleaching) of photosensitizers by fluorescent emission monitoring
Assay type: physicochemical
Conditions: for complete photobleaching after (lifetime): 5 μM aqueous solution, green laser 532 nm 6.3 mW cm^−2 / white LED 2400 lux; for lasting time of singlet oxygen generation: estimated for standard illumination level of 500 lux
Procedure: To test the lifetime of photosensitizers, we monitored the fluorescent emission of Rose Bengal and Erythrosine, respectively. FIG. 10a is a graph of normalized intensity vs wavelength showing absorption and fluorescence for Rose Bengal and Erythrosine. 0.5-mL aqueous solutions of each photosensitizer were put into a cuvette and then the fluorescent spectrum was measured using a fiber bundle-coupled spectrometer (VS140 VIS-NIR; Horiba Jobin Yvon Inc., Edison, NJ, USA). […] Lifetime of Rose Bengal is longer than that of Erythrosine, showing complete photobleaching after 120 min (60 min for Erythrosine). Both are also activated by a white LED with 2400 lux. Considering that the standard illumination level of normal workstation spaces is 500 lux, the lasting time of singlet oxygen generation for Rose Bengal and Erythrosine can be estimated to be about 9.6 and 4.8 hours, respectively.

| Compound | complete photobleaching after (lifetime) [min] | lasting time of singlet oxygen generation |
| --- | --- | --- |
| Erythrosine [FD&C RED No. 3] | 60 | ~4.8 h |
| O=C([O-])c1c(Cl)c(Cl)c(Cl)c(Cl)c1-c1c2cc(I)c(=O)c(I)c-2oc2c(I)c([O-])c(I)cc12.[Na+].[Na+] [FD&C RED No. 105, Rose Bengal] | 120 | about 9.6 hours |
